Test results: patent publication US20180057547A1, “DIAGNOSTIC AND THERAPEUTIC EPITOPE, AND TRANSGENIC PLANT” (OXFORD UNIVERSITY INNOVATION LIMITED, priority 1999, published 2018)

Legend:
[1] = system: PBMC from coeliac volunteers; test: Antagonism of A-gliadin 57-73 QE65 interferon gamma ELISPOT response (simultaneous addition of peptide); format: cell-based, human; details: peptides known to bind HLA-DQ2, 50 μg/ml plus A-gliadin 57-73 QE65 10 μg/ml
Description: Simultaneous addition of peptide (50 μg/ml) or buffer and A-gliadin 57-73 QE65 (10 μg/ml) in IFNgamma ELISPOT using PBMC from coeliac volunteers 6 days after commencing 3 day gluten challenge (n=5). Results were expressed as response with peptide plus A-G 57-73 QE65 (mean of duplicates) as % response with buffer plus A-G 57-73 QE65 (mean of 20 replicates). (See Table 9).

[2] = system: HLA-DQ2; details: cited from earlier work

IDVWLGGLLAENFLPY [TP, reference compound]
% Inhibit. of A-gliadin 57-73 QE65 interferon gamma ELISpot response [1]: 31% | binding to HLA-DQ2 [2]: bind avidly to HLA-DQ2

PRAPWIEQEGPEYW [HLA1a, reference compound]
% Inhibit. of A-gliadin 57-73 QE65 interferon gamma ELISpot response [1]: 0% | % Inhibit. of A-gliadin 57-73 QE65 interferon gamma ELISpot response ([1]; listed as HLA class 1 α 46-60): does not alter responses | binding to HLA-DQ2 [2]: bind avidly to HLA-DQ2
